Test results: patent US8529889B2, “Methods and compositions related to the modulation of intercellular junctions” (Massachusetts Institute of Technology, priority 2004, dated 2013)
Entries after “also recorded” stand apart in the source; their conditions may differ.

Key:
[1] = system: MCF-7 (human mammary cancer) cells; experiment: Tight junction disruption in MCF-7 cells; assay type: cell-based
Description: (§1) Heparinase III (hep III) was made as described previously (Godavarti R et al., 1996); heparinase I (hep I) was a generous gift from Momenta pharmaceuticals (Cambridge, Mass.); chondroitinase ABC (C-ABC) lyase was purchased from Seikagaku (East Falmouth, Mass.). Hep III was added to the apical side of the cells at a concentration of 10 μg/mL; hep I was added at a concentration of 6 μg/mL, and C-ABC was added at 50 μU/mL. The concentration of ethylene glycol tetra acetic acid (EGTA) (Sigma) used was 5 mM. All the enzymes and the EGTA were made up in serum free Eagle's Minimal Essential medium with 2 mM L-glutamine. Heparin solution was made up to a concentration of 15 mM in serum free media and added to the apical side of the cells after removing the cell medium. Ardeparin sodium and ardeparin calcium powder were added to cells at 6 mg/well, and ardeparin solution was made up to a final concentration of 18 mM.
(§2) Cells grown on glass coverslips were fixed with 10% buffered formalin for 10 min. Cells were then permeabilized with 0.5% Triton-100 (Sigma) in Tris Buffer Saline with 1% Tween-20 (TBST) for 15 min. at room temperature. Nonspecific antibody binding was blocked with 0.1% bovine serum albumin (BSA) for 30 min. at room temperature. The cells were incubated with primary antibody at room temperature for 4 hours and washed 3 times with PBS. The cells were then incubated in the appropriate secondary antibody for 1 hour in the dark at room temperature and washed 3 times with PBS.

[2] = system: caco-2 (human colon adenocarcinoma) cells; experiment: Tight junction disruption in caco-2 cells; assay type: cell-based
Description: as §1, §2

[3] = system: 16HBE14O-human virally transformed bronchial epithelial cells; experiment: Tight junction (ZO-1) disruption by immunofluorescence and confocal microscopy, 16HBE14O-; assay type: cell-based; settings: 16HBE14O- cells; for disruption of ZO-1 / tight junctions (epithelial permeability): hep III 10 μg/mL, hep I 6 μg/mL, C-ABC 50 μU/mL, EGTA 5 mM, 20 min. at 37° C.
Description: as §1, §2
16HBE14O-cells were grown to confluency on fibronectin coated coverslips for 4 to 5 days after seeding. The cells were then incubated with hep III, hep I, C-ABC and EGTA made up to the final concentration described above for 20 min. at 37° C. Using the primary rabbit anti-ZO-1 antibody and the secondary goat anti-rabbit Texas Red antibody, the cells were analyzed by the immunofluorescence and confocal microscopy technique discussed above. […] Localization of the tight junction protein in untreated cells is also shown as a control.

[4] = system: calu-3 human lung adenocarcinoma epithelial cells; experiment: Tight junction (ZO-1) and actin filament disruption by immunofluorescence and confocal microscopy, calu-3; assay type: cell-based; settings: calu-3 cells
Description: as §1, §2
Calu-3 cells were seeded on gelatin coated coverslips and were allowed to grow for about 4 to 5 days to about 80% confluency. UFH powder was added to the apical side of the cells using an insufflator to ensure homogenous distribution of the powder on the coverslip.

syndecan-4 = experiment: Syndecan-4 ectodomain shedding, dot immunoassay, 16HBE14O- cells; assay type: cell-based, human; settings: hep III 10 μg/mL, hep I 6 μg/mL, C-ABC 50 μU/mL
Description: as §1
(§3) Specificity and quantification of the dot immunoassay for shed syndecan-1 and -4 ectodomains has been previously described in detail (Subramanian et al., 1997). In brief, the conditioned media were diluted in buffer A (0.15 M NaCl buffered to pH 4.5 with 50 mM sodium acetate and with 0.1% Triton X-100) and applied to catonic polyvinylidine diflouride-based membranes (Immobilin-N) (Millipore, Bedford, Mass.) under mild vacuum in an immunodot apparatus (V&P Scientific, San Diego, Calif.). […]
(§4) Detection was by the ECL system (Amersham) as described by the manufacturer. Results were quantified by scanning the exposed membrane with a Kodak Image Station.
(§5) 16HBE14O-cells were grown to about 80% confluency in 6 well plates. […] To evaluate the changes in cell number, the cells were trypsinized and counted with a coulter-counter after incubation. […] The membranes were then incubated in mouse anti-syndecan-1 and in the appropriate secondary antibody and were developed and analyzed as described above. […]

syndecan-1 = experiment: Syndecan-1 ectodomain shedding, dot immunoassay, 16HBE14O- cells; assay type: cell-based, human; settings: hep III 10 μg/mL, hep I 6 μg/mL, C-ABC 50 μU/mL
Description: as §1, §3, §4, §5

Molecule	tight junction disruption (epithelial permeability) [1]	time for cell line to recover from the effect of the treatment [1]	tight junction disruption (epithelial permeability) [2]	time for cell line to recover from the effect of the treatment [2]	time for cell line to recover from the effect of the treatment [3]	disruption of ZO-1 / tight junctions (epithelial permeability) [3]	disruption of ZO-1 / tight junctions (epithelial permeability) [4]	time for cell line to recover from the effect of the treatment [4]	disruption of ZO-1 / tight junctions (epithelial permeability) ([3]; listed as C-ABC)	syndecan-4 ectodomain shedding (syndecan-4)	syndecan-1 ectodomain shedding (syndecan-1)	disruption of ZO-1 / tight junctions (epithelial permeability) ([3]; listed as hep I)	disruption of ZO-1 / tight junctions (epithelial permeability) ([3]; listed as hep III)
O=C(O)CN(CCOCCOCCN(CC(=O)O)CC(=O)O)CC(=O)O [EGTA, ethylene glycol tetra acetic acid, reference compound]	caused a disruption of the junctional complex	about 8 hours	caused a disruption of the junctional complex	about 8 hours	about 8 hours	caused a disruption of the junctional complex; also recorded: cause different amounts of disruption of the tight junctions	caused a disruption of the junctional complex	about 8 hours					
chondroitinase ABC [cABC]	Hep III had more effect on tight junction disruption than cABC and Hep I		Hep III had more effect on tight junction disruption than cABC and Hep I			more pronounced effect than Hep III	more effect than Hep I		cause different amounts of disruption of the tight junctions	did not cause an increase in syndecan-4 ectodomain shedding	causes syndecan-1 ectodomain shedding		
heparinase I (protein, UniProt Q05819 22-384, looked up, Glycosaminoglycan-degrading enzyme; cleaves HSGAGs at the more sulfated, heparin-like regions) Heparin lyase I: QQKKSGNIPYRVNVQADSAKQKAIIDNKWVAVGINKPYALQYDDKLRFNGKPSYRFELKAEDNSLEGYAAGETKGRTELSYSYATTNDFKKFPPSVYQNAQKLKTVYHYGKGICEQGSSRSYTFSVYIPSSFPDNATTIFAQWHGAPSRTLVATPEGEIKTLSIEEFLALYDRMIFKKNIAHDKVEKKDKDGKITYVAGKPNGWKVEQGGYPTLAFGFSKGYFYIKANSDRQWLTDKADRNNANPENSEVMKPYSSEYKTSTIAYKMPFAQFPKDCWITFDVAIDWTKYGKEANTILKPGKLDVMMTYTKNKKPQKAHIVNQQEILIGRNDDDGYYFKFGIYRVGNSTVPVTYNLSGYSETAR	Hep III had more effect on tight junction disruption than cABC and Hep I		Hep III had more effect on tight junction disruption than cABC and Hep I			more pronounced effect than Hep III	Hep III and cABC had more effect than Hep I			did not cause an increase in syndecan-4 ectodomain shedding	causes syndecan-1 ectodomain shedding	cause different amounts of disruption of the tight junctions	
heparinase III (protein, UniProt Q59289 25-659, looked up, Glycosaminoglycan-degrading enzyme; cleaves the less/unsulfated, heparan sulfate-like regions) Heparin-sulfate lyase: QSSSITRKDFDHINLEYSGLEKVNKAVAAGNYDDAAKALLAYYREKSKAREPDFSNAEKPADIRQPIDKVTREMADKALVHQFQPHKGYGYFDYGKDINWQMWPVKDNEVRWQLHRVKWWQAMALVYHATGDEKYAREWVYQYSDWARKNPLGLSQDNDKFVWRPLEVSDRVQSLPPTFSLFVNSPAFTPAFLMEFLNSYHQQADYLSTHYAEQGNHRLFEAQRNLFAGVSFPEFKDSPRWRQTGISVLNTEIKKQVYADGMQFELSPIYHVAAIDIFLKAYGSAKRVNLEKEFPQSYVQTVENMIMALISISLPDYNTPMFGDSWITDKNFRMAQFASWARVFPANQAIKYFATDGKQGKAPNFLSKALSNAGFYTFRSGWDKNATVMVLKASPPGEFHAQPDNGTFELFIKGRNFTPDAGVFVYSGDEAIMKLRNWYRQTRIHSTLTLDNQNMVITKARQNKWETGNNLDVLTYTNPSYPNLDHQRSVLFINKKYFLVIDRAIGEATGNLGVHWQLKEDSNPVFDKTKNRVYTTYRDGNNLMIQSLNADRTSLNEEEGKVSYVYNKELKRPAFVFEKPKKNAGTQNFVSIVYPYDGQKAPEISIRENKGNDFEKGKLNLTLTINGKQQLVLVP	more effect on tight junction disruption than cABC and Hep I		more effect on tight junction disruption than cABC and Hep I			Hep I and cABC had more pronounced effect than Hep III	more effect than Hep I			did not cause an increase in syndecan-4 ectodomain shedding	causes syndecan-1 ectodomain shedding		cause different amounts of disruption of the tight junctions
